Measurements published in ChEMBL document CHEMBL1201862, “PubChem BioAssay data set” (2004).
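Results reflect a 48-hour exposure of cells in 96-well plates to compound at five concentrations. The concentration for 50% growth inhibition is given as GI50.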 Active and inactive are the calls of the source. No stated cut-off is given here; in the data, active = GI50 up to about 1.1 µM and inactive = higher.

What was measured:
Assay in all cases: NCI anticancer screen, dose series, 48 h
SN12C = system: SN12C
KM12 = system: KM12
BT-549 = system: BT-549
SF-539 = system: SF-539
HCT-116 = system: HCT-116
OVCAR-8 = system: OVCAR-8
M14 = system: M14
NCI-H522 = system: NCI-H522
DU-145 = system: DU-145
HL-60 = system: HL-60
NCI-H23 = system: NCI-H23
SW-620 = system: SW-620
MDA-N = system: MDA-N
U-251 = system: U-251
SNB-75 = system: SNB-75
NCI/ADR-RES = system: NCI/ADR-RES
TK-10 = system: TK-10
SF-268 = system: SF-268
MDA-MB-435 = system: MDA-MB-435
SR = system: SR
Hs-578T = system: Hs-578T
RPMI-8226 = system: RPMI-8226
PC-3 = system: PC-3
RXF 393 = system: RXF 393
HOP-62 = system: HOP-62
A549 = system: A549
CAKI-1 = system: CAKI-1
SK-MEL-28 = system: SK-MEL-28
HCC 2998 = system: HCC 2998
COLO 205 = system: COLO 205
UACC-62 = system: UACC-62
SK-MEL-5 = system: SK-MEL-5
K562 = system: K562
OVCAR-4 = system: OVCAR-4
Malme-3M = system: Malme-3M
SF-295 = system: SF-295
T47D = system: T47D
A498 = system: A498
SK-MEL-2 = system: SK-MEL-2
IGROV-1 = system: IGROV-1
MCF7 = system: MCF7
CCRF-CEM = system: CCRF-CEM
ACHN = system: ACHN
MDA-MB-231 = system: MDA-MB-231
OVCAR-5 = system: OVCAR-5
SNB-19 = system: SNB-19
HOP-92 = system: HOP-92
EKVX = system: EKVX
UACC-257 = system: UACC-257
UO-31 = system: UO-31
786-0 = system: 786-0
OVCAR-3 = system: OVCAR-3
HCT-15 = system: HCT-15
LOX IMVI = system: LOX IMVI
HT-29 = system: HT-29

**Q.** What does the source list for `CC1=NN(C(=O)CC(=O)Nc2cccc(C)c2)C(=O)C1/N=N/c1ccc(C(=O)O)cc1` (stereo not given)?
**A.** GI50 (SN12C): > 100 µM (inactive); GI50 (KM12): > 100 µM (inactive); GI50 (BT-549): > 100 µM (inactive); GI50 (SF-539): > 100 µM (inactive); GI50 (HCT-116): > 100 µM (inactive); GI50 (OVCAR-8): > 100 µM (inactive); GI50 (M14): > 100 µM (inactive); GI50 (NCI-H522): > 100 µM (inactive); GI50 (DU-145): > 100 µM (inactive); GI50 (HL-60): > 100 µM (inactive); GI50 (NCI-H23): > 100 µM (inactive); GI50 (SW-620): > 100 µM (inactive); GI50 (MDA-N): > 100 µM (inactive); GI50 (U-251): > 100 µM (inactive); GI50 (SNB-75): 69.2 µM (inactive); GI50 (NCI/ADR-RES): > 100 µM (inactive); GI50 (TK-10): > 100 µM (inactive); GI50 (SF-268): > 100 µM (inactive); GI50 (MDA-MB-435): > 100 µM (inactive); GI50 (SR): 37.9 µM (inactive); GI50 (Hs-578T): > 100 µM (inactive); GI50 (RPMI-8226): > 100 µM (inactive); GI50 (PC-3): > 100 µM (inactive); GI50 (RXF 393): > 100 µM (inactive); GI50 (HOP-62): > 100 µM (inactive); GI50 (A549): > 100 µM (inactive); GI50 (CAKI-1): > 100 µM (inactive); GI50 (SK-MEL-28): > 100 µM (inactive); GI50 (HCC 2998): > 100 µM (inactive); GI50 (COLO 205): > 100 µM (inactive); GI50 (UACC-62): > 100 µM (inactive); GI50 (SK-MEL-5): > 100 µM (inactive); GI50 (K562): > 100 µM (inactive); GI50 (OVCAR-4): > 100 µM (inactive); GI50 (Malme-3M): > 100 µM (inactive); GI50 (SF-295): > 100 µM (inactive); GI50 (T47D): > 100 µM (inactive); GI50 (A498): > 100 µM (inactive); GI50 (SK-MEL-2): > 100 µM (inactive); GI50 (IGROV-1): > 100 µM (inactive); GI50 (MCF7): > 100 µM (inactive); GI50 (CCRF-CEM): > 100 µM (inactive); GI50 (ACHN): > 100 µM (inactive); GI50 (MDA-MB-231): > 100 µM (inactive); GI50 (OVCAR-5): > 100 µM (inactive); GI50 (SNB-19): > 100 µM (inactive); GI50 (HOP-92): 34.9 µM (inactive); GI50 (EKVX): > 100 µM (inactive); GI50 (UACC-257): > 100 µM (inactive); GI50 (UO-31): 64.4 µM (inactive); GI50 (786-0): > 100 µM (inactive); GI50 (OVCAR-3): > 100 µM (inactive); GI50 (HCT-15): > 100 µM; GI50 (LOX IMVI): > 100 µM (inactive); GI50 (HT-29): > 100 µM (inactive)
